The EC50 is the concentration that produces a half-maximal response.

The target in series [1] is T1, Peroxisome proliferator-activated receptor gamma (Homo sapiens, UniProt P37231).
T1 sequence (P37231 whole entry): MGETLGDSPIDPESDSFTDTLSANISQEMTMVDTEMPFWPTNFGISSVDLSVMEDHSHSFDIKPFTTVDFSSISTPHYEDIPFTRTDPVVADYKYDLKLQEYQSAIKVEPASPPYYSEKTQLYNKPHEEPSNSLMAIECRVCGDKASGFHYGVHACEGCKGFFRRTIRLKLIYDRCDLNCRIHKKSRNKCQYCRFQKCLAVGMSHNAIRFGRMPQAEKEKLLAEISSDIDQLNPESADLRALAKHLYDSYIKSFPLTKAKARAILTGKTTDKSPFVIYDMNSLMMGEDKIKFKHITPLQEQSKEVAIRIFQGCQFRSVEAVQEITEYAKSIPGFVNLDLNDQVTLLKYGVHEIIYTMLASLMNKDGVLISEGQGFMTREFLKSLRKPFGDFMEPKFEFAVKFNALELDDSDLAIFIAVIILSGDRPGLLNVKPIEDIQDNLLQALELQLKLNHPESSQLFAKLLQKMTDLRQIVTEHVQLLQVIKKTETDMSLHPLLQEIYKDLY
Description: Agonist activity at human PPARgamma ligand binding domain expressed in monkey COS7 cells cotransfected with Gal4 by luciferase reporter gene assay. The format is cell-based, COS-7. On the technique in general: A reporter such as luciferase makes a cellular process visible.

The target in series [2] is T2, Peroxisome proliferator-activated receptor alpha (Homo sapiens, UniProt Q07869).
T2 sequence (Q07869 whole entry): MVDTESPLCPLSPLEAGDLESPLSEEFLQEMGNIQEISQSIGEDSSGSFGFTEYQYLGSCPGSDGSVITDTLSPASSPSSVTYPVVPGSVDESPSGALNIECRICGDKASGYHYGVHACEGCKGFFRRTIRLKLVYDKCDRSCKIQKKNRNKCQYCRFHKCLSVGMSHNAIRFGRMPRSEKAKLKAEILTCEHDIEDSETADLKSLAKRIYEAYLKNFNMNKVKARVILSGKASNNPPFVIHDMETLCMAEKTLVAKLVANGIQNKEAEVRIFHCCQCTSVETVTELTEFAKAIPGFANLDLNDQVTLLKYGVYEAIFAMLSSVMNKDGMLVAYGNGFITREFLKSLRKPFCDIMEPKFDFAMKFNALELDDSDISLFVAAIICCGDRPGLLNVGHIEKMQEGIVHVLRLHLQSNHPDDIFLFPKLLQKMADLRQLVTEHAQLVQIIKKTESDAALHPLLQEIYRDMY
Description: Agonist activity at human PPARalpha ligand binding domain expressed in monkey COS7 cells cotransfected with Gal4 by luciferase reporter gene assay. The format is cell-based, COS-7.

Series [3] deals with T3, Peroxisome proliferator-activated receptor delta (Homo sapiens, UniProt Q03181).
T3 sequence (Q03181 whole entry): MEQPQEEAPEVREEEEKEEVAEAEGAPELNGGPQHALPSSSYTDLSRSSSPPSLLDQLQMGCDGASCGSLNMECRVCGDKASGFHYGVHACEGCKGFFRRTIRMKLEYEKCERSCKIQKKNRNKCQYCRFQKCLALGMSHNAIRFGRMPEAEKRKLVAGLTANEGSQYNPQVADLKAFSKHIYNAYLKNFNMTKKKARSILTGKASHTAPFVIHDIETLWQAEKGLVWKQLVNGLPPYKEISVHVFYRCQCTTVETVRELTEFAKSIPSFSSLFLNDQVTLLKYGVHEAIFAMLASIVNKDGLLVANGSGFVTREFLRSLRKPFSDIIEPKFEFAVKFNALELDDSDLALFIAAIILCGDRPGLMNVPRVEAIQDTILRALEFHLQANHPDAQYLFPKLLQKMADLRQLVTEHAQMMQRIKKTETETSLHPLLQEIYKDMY
As to the kind of experiment: Agonist activity at human PPARdelta ligand binding domain expressed in monkey COS7 cells cotransfected with Gal4 by luciferase reporter gene assay. The format is cell-based, COS-7.

In series [4] the test system is Mus musculus. Description: Antialzheimer activity in APPPS1 transgenic C57BL/6J mouse model assessed as decrease in beta-amyloid accumulation in brain at 1 to 10 mg/kg. The format is functional, organism-based.
Series [5] deals with Mus musculus. Description: Cognitive enhancing effect in APPPS1 transgenic C57BL/6J mouse model at 1 to 10 mg/kg for 60 days by Morris-Water maze assay. The format is functional, organism-based.
Series [6] in a line: Ratio of AUC (0 to 24 hrs) in brain to plasma in mouse at 2 mg/kg, iv and 10 mg/kg, po. The format is ADME, organism-based. Conditions: read-out: BPR.

Calls of active or inactive are those of the source. No cut-off for these calls is given here.

For the compound `Cc1cc(C2CC2C(OC(=O)c2ccccc2)c2ccc(OC(F)(F)F)cc2)cc(C)c1OC(C)(C)C(=O)O` (single isomer, unassigned; diastereomer 1), the 50% effective concentration (EC50) in series [1] turned out to be 116 nM; in series [2], 21 nM; in series [3], 79 nM.

Take `COC(c1ccc(OC(F)(F)F)cc1)C1CC1c1cc(C)c(OC(C)(C)C(=O)O)c(C)c1` (single isomer, unassigned; enantiomer 1): the result in the series on Mus musculus [4] and in the series with Mus musculus [5] was Active. In series [1] (cos-7), the EC50 was 16 nM. In addition, the Kp in series [6] was 0.37.

Regarding `Cc1cc(C2CC2C(OC(=O)c2ccccc2)c2ccc(OC(F)(F)F)cc2)cc(C)c1OC(C)(C)C(=O)O` (single isomer, unassigned; diastereomer 2), the EC50 in series [1] worked out at 23 nM; in series [2] it was 100 nM; in series [3] it was 122 nM.
